Experimental data: patent publication US20240293367A1, “METHODS OF TREATING DISORDERS WITH A […]” (Cybin IRL Limited, priority 2023, published 2024)

Conditions: female, rat, in vivo, 40 mg/kg

[2H]C([2H])([2H])N(C([2H])([2H])[2H])C([2H])([2H])C([2H])([2H])c1c[nH]c2cccc(O)c12 [psilocin-d10, 3-(2-(bis(methyl-d3)amino)ethyl-1,1,2,2-d4)-1H-indol-4-ol]
AUC(0-t): 3630 ng·h/mL | Cmax: 343 ng/mL
